Test results taken from ChEMBL document CHEMBL5236565, “Design, synthesis, and biological evaluation of novel 2'-methyl-2'-fluoro-6-methyl-7-alkynyl-7-deazapurine nucleoside analogs as anti-Zika virus agents” (Eur J Med Chem, 2022).
Activity calls are given as the source filed them. The rule behind the calls is not given here.

Experiments:
Zika virus [1] = assay: Antiviral activity against ZIKV infected in human A549 cells at 50 uM by microtiter assay relative to control; type: functional
A549 [2] = assay: Downregulation of ZIKV E protein cleaved caspase 3 expression in human A549 cells at 10 to 50 uM measured after 48 hrs by Western blotting analysis; type: functional, cell-based; conditions: dose 10-50 µM
Zika virus [3] = assay: Antiviral activity against ZIKV ZG-01 infected in African green monkey Vero cells assessed as reduction in viral induced cytopathic effect by measuring reduction in PFU measured after 4 days by neutral red staining based plaque assay; type: functional, organism-based; conditions: ZG-01, Vero, 96 h; for EC90: time 4 day
SNB-19 = assay: Cytotoxicity against human SNB-19 cells assessed as cell growth inhibition measured after 24 hrs by MTT assay; type: functional
Vero [4] = assay: Downregulation of ZIKV E protein cleaved caspase 3 expression in African green monkey Vero cells at 10 to 50 uM measured after 48 hrs by Western blotting analysis; type: functional, cell-based; conditions: Chlorocebus sabaeus, dose 10-50 µM
Zika virus [5] = assay: Antiviral activity against ZIKV MR766 infected in human A549 cells assessed as reduction in viral induced cytopathic effect by measuring reduction in PFU measured after 4 days by neutral red staining based plaque assay; type: functional, organism-based; conditions: MR766, A549, 96 h; for EC90: time 4 day
Zika virus [6] = assay: Antiviral activity against ZIKV ZG-01 infected in human SNB-19 cells assessed as reduction in viral induced cytopathic effect by measuring reduction in PFU measured after 4 days by neutral red staining based plaque assay; type: functional, organism-based; conditions: ZG-01, SNB-19, 96 h; for EC90: time 4 day
A549 [7] = assay: Downregulation of ZIKV E protein cleaved caspase 3 expression in human A549 cells at 5 to 25 uM by immunofluorescence analysis; type: functional, cell-based; conditions: dose 5-25 µM
Zika virus [8] = assay: Antiviral activity against ZIKV MR766 infected in human SNB-19 cells assessed as reduction in viral induced cytopathic effect by measuring reduction in PFU measured after 4 days by neutral red staining based plaque assay; type: functional, organism-based; conditions: MR766, SNB-19, 96 h; for EC90: time 4 day
Zika virus [9] = assay: Antiviral activity against ZIKV MR766 infected in human Huh-7 cells assessed as reduction in viral induced cytopathic effect by measuring reduction in PFU measured after 4 days by neutral red staining based plaque assay; type: functional, organism-based; conditions: MR766, Huh-7, 96 h; for EC90: time 4 day
[10] = Cytotoxicity against African green monkey Vero cells assessed as cell growth inhibition measured after 24 hrs by MTT assay; type: toxicity, cell-based; conditions: chlorocebus sabaeus
A549 [11] = assay: Cytotoxicity against human A549 cells assessed as cell growth inhibition measured after 24 hrs by MTT assay; type: functional
Zika virus [12] = assay: Antiviral activity against ZIKV MR766 infected in African green monkey Vero cells assessed as reduction in viral induced cytopathic effect by measuring reduction in PFU measured after 4 days by neutral red staining based plaque assay; type: functional, organism-based; conditions: 96 h; for EC90: time 4 day
Zika virus [13] = assay: Antiviral activity against ZIKV ZG-01 infected in human Huh-7 cells assessed as reduction in viral induced cytopathic effect by measuring reduction in PFU measured after 4 days by neutral red staining based plaque assay; type: functional, organism-based; conditions: ZG-01, Huh-7, 96 h; for EC90: time 4 day
Zika virus [14] = assay: Antiviral activity against ZIKV ZG-01 infected in human A549 cells assessed as reduction in viral induced cytopathic effect by measuring reduction in PFU measured after 4 days by neutral red staining based plaque assay; type: functional, organism-based; conditions: ZG-01, A549, 96 h; for EC90: time 4 day
Huh-7 = assay: Cytotoxicity against human Huh-7 cells assessed as cell growth inhibition measured after 24 hrs by MTT assay; type: functional
Vero [15] = assay: Downregulation of ZIKV E protein cleaved caspase 3 expression in African green monkey Vero cells at 5 to 25 uM measured after 48 hrs by Western blotting analysis; type: functional, cell-based; conditions: Chlorocebus sabaeus, dose 5-25 µM
A549 [16] = assay: Induction of mitochondrial membrane potential loss in human A549 cells at 50 to 100 uM by JC-1 staining based fluorescence microscope; type: functional, cell-based; conditions: dose 50-100 µM
A549 [17] = assay: Downregulation of ZIKV E protein cleaved caspase 3 expression in human A549 cells at 2.5 to 25 uM by immunofluorescence analysis; type: functional, cell-based; conditions: dose 2.5-25 µM
NS5 = NS5 (Zika virus, UniProt A0A143MHK7); assay: Binding affinity to N-terminal His-tagged recombinant ZIKV ZG-01 RdRp (272 to 903 residues) expressed in Escherichia coli rosetta by surface plasmon resonance assay
A549 [18] = assay: Downregulation of ZIKV E protein cleaved caspase 3 expression in human A549 cells at 5 to 25 uM measured after 48 hrs by Western blotting analysis; type: functional, cell-based; conditions: dose 5-25 µM

Sequence of NS5 (A0A143MHK7 whole entry, the tested form may be a part): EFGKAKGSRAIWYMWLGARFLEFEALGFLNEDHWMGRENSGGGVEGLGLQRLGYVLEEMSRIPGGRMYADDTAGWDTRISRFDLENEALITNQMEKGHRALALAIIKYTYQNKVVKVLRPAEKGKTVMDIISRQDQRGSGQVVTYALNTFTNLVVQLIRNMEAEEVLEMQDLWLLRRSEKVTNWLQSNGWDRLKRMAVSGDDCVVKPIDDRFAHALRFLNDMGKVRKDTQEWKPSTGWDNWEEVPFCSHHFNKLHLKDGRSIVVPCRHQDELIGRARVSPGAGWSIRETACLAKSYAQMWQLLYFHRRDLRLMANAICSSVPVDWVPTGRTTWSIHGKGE

In the case of `Cc1ncnc2c1c(/C=C/c1ccccc1)cn2[C@@H]1O[C@H](CO)[C@@H](O)[C@@]1(C)F`, the Activity (Zika virus [1]) is reported as <10%.

For `COc1cccc(C#Cc2cn([C@@H]3O[C@H](CO)[C@@H](O)[C@@]3(C)F)c3ncnc(C)c23)n1`, the Activity (Zika virus [1]) was <10%.

With `NC(=O)c1ncn([C@@H]2O[C@H](CO)[C@@H](O)[C@H]2O)n1` [RIBAVIRIN] the Activity (A549 [2]) was “inactive”, the EC50 (Zika virus [3]) was > 80 µM and the EC90 (Zika virus [3]) was > 80 µM. The CC50 (SNB-19) was 485 µM, the Activity (Vero [4]) was “inactive” and the EC50 (Zika virus [5]) was 38.1 µM. For the same compound, the EC90 (Zika virus [5]) was 75.9 µM, the EC50 (Zika virus [6]) was > 80 µM and the EC90 (Zika virus [6]) was > 80 µM. For the same compound, the Activity (A549 [7]) was “inactive”, the EC50 (Zika virus [8]) was > 80 µM and the EC90 (Zika virus [8]) was > 80 µM. The EC50 (Zika virus [9]) was 17.7 µM, the EC90 (Zika virus [9]) was 51 µM and the CC50 at 24 h [10] was 470 µM. For the same compound, the CC50 (A549 [11]) was > 50 µM, the EC50 (Zika virus [12]) was > 80 µM and the EC90 (Zika virus [12]) was > 80 µM. It also gave an EC50 (Zika virus [13]) of 14.1 µM, an EC90 (Zika virus [13]) of 47.4 µM and an EC50 (Zika virus [14]) of 36.1 µM. It also gave an EC90 (Zika virus [14]) of 70.3 µM and a CC50 (Huh-7) of 513 µM.

For `CC#Cc1cn([C@@H]2O[C@H](CO)[C@@H](O)[C@@]2(C)F)c2ncnc(C)c12`, the Activity (Zika virus [1]) was <10%.

For `Cc1ccccc1C#Cc1cn([C@@H]2O[C@H](CO)[C@@H](O)[C@@]2(C)F)c2ncnc(C)c12`, the Activity (Zika virus [1]) was >90%, the CC50 (A549 [11]) was > 50 µM and the EC50 (Zika virus [14]) was 8.5 µM. The EC90 (Zika virus [14]) was 25.7 µM.

For `Cc1ncnc2c1c(C#CC1CC1)cn2[C@@H]1O[C@H](CO)[C@@H](O)[C@@]1(C)F`, the Activity (Zika virus [1]) was <10%.

In the case of `Cc1ncnc2c1c(C#Cc1ncccn1)cn2[C@@H]1O[C@H](CO)[C@@H](O)[C@@]1(C)F`, the Activity (Zika virus [1]) is reported as <10%.

Compound `Cc1ncnc2c1c(C#Cc1ccccc1C(F)(F)F)cn2[C@@H]1O[C@H](CO)[C@@H](O)[C@@]1(C)F` has an Activity (Zika virus [1]) of 34.4%.

For `Cc1ncnc2c1c(C#Cc1nccs1)cn2[C@@H]1O[C@H](CO)[C@@H](O)[C@@]1(C)F`, the Activity (Zika virus [1]) was <10%.

In the case of `Cc1ncnc2c1c(C#Cc1ccc(Br)cc1)cn2[C@@H]1O[C@H](CO)[C@@H](O)[C@@]1(C)F`, the Activity (Zika virus [1]) is reported as >90%, the CC50 (A549 [11]) is reported as > 50 µM and the EC50 (Zika virus [14]) is reported as 4.4 µM. The EC90 (Zika virus [14]) was 14.7 µM.

In the case of `COCc1ccccc1C#Cc1cn([C@@H]2O[C@H](CO)[C@@H](O)[C@@]2(C)F)c2ncnc(C)c12`, the Activity (Zika virus [1]) is reported as >90%, the CC50 (A549 [11]) is reported as > 50 µM and the EC50 (Zika virus [14]) is reported as 13.5 µM. For the same compound, the EC90 (Zika virus [14]) was > 50 µM.

In the case of `Cc1ncnc2c1c(-c1ccc(-c3ccccc3)cc1)cn2[C@@H]1O[C@H](CO)[C@@H](O)[C@@]1(C)F`, the Activity (Zika virus [1]) is reported as 29.9%.

With `C#Cc1cn([C@@H]2O[C@H](CO)[C@@H](O)[C@@]2(C)F)c2ncnc(C)c12` the Activity (Zika virus [1]) was <10%.

In the case of `Cc1ncnc2c1c(C#Cc1cccs1)cn2[C@@H]1O[C@H](CO)[C@@H](O)[C@@]1(C)F`, the Activity (Zika virus [1]) is reported as >90%, the CC50 (A549 [11]) is reported as > 50 µM and the EC50 (Zika virus [14]) is reported as 35.4 µM. For the same compound, the EC90 (Zika virus [14]) was 50 µM.

With `CCOC(=O)c1ccc(C#Cc2cn([C@@H]3O[C@H](CO)[C@@H](O)[C@@]3(C)F)c3ncnc(C)c23)s1` the Activity (Zika virus [1]) was >90%, the CC50 (A549 [11]) was > 50 µM and the EC50 (Zika virus [14]) was 39.8 µM. For the same compound, the EC90 (Zika virus [14]) was > 50 µM.

With `Cc1cccnc1C#Cc1cn([C@@H]2O[C@H](CO)[C@@H](O)[C@@]2(C)F)c2ncnc(C)c12` the Activity (Zika virus [1]) was <10%.

For `Cc1ncnc2c1c(C#Cc1ccc(Br)c(F)c1)cn2[C@@H]1O[C@H](CO)[C@@H](O)[C@@]1(C)F`, the Activity (Vero [15]) was “Active”, the Activity (A549 [16]) was “inactive” and the EC50 (Zika virus [3]) was 3.1 µM. The EC90 (Zika virus [3]) was 7.1 µM, the CC50 (SNB-19) was 49.4 µM and the Activity (A549 [17]) was “Active”. For the same compound, the EC50 (Zika virus [5]) was 6.4 µM, the EC90 (Zika virus [5]) was 18 µM and the EC50 (Zika virus [6]) was 6.4 µM. For the same compound, the EC90 (Zika virus [6]) was 16.6 µM, the Kd (NS5) was 1.87 µM and the Activity (A549 [18]) was “Active”. The EC50 (Zika virus [8]) was 8.9 µM, the EC90 (Zika virus [8]) was 19.8 µM and the EC50 (Zika virus [9]) was 6.1 µM. For the same compound, the EC90 (Zika virus [9]) was 14.6 µM, the CC50 at 24 h [10] was 46.8 µM and the CC50 (A549 [11]) was > 50 µM. For the same compound, the EC50 (Zika virus [12]) was 7.7 µM, the EC90 (Zika virus [12]) was 18.6 µM and the EC50 (Zika virus [13]) was 5.7 µM. For the same compound, the EC90 (Zika virus [13]) was 16.4 µM, the EC50 (Zika virus [14]) was 2.8 µM and the EC90 (Zika virus [14]) was 6.8 µM. The CC50 (Huh-7) was 43.8 µM.

With `Cc1ncnc2c1c(C#Cc1ccc(Br)cc1F)cn2[C@@H]1O[C@H](CO)[C@@H](O)[C@@]1(C)F` the CC50 (A549 [11]) was > 50 µM, the EC50 (Zika virus [14]) was 3 µM and the EC90 (Zika virus [14]) was 7.9 µM.

Compound `Cc1ncnc2c1c(C#Cc1ccccn1)cn2[C@@H]1O[C@H](CO)[C@@H](O)[C@@]1(C)F` has an Activity (Zika virus [1]) of 18.8%.

For `COc1cccc(C#Cc2cn([C@@H]3O[C@H](CO)[C@@H](O)[C@@]3(C)F)c3ncnc(C)c23)c1`, the Activity (Zika virus [1]) was >90%, the CC50 (A549 [11]) was > 50 µM and the EC50 (Zika virus [14]) was 14.8 µM. The EC90 (Zika virus [14]) was 40.4 µM.
